The source of these data is patent US20240300949A1, “NOVEL CRYSTALLINE FORM OF 1-(8-BROMOPYRIDO[2,3-E][1,2,4]TRIAZOLO[4,3-A]PYRAZIN-4-YL)-N-METHYLAZETIDIN-3-AMINE HEMISUCCINATE” (JW PHARMACEUTICAL CORPORATION, priority 2021, published 2024).

One series addresses histamine 4 receptor (Homo sapiens, UniProt Q9H3N8). The conditions noted are these: background statement, refers to U.S. Pat. No. 9,586,959; cited from earlier work.
Series [1] deals with inflammatory cells such as mast cells and eosinophils. The settings on record: background statement, refers to U.S. Pat. No. 9,586,959; cited from earlier work.
Series [2] in a line: solid-state stability on micronization. The format is physicochemical.
The nature of series [3]: solid-state stability on drying in vacuum oven at 60° C. (XRPD, FIG. 8). The format is physicochemical. The source says: Form F is a channel hydrate and generally channel hydrates/solvates are not very stable since the solvent molecules easily can move in and out of the channels and causes collapse of the crystal lattice. In the case of form F the water molecules are placed in the same molecular plane as the succinate molecules which stabilize the hydrate and makes form F particularly useful for use in a solid pharmaceutical product, such as in a tablet. Furthermore, form F can be dried under moderate drying conditions such as in a vacuum oven at 60° C. […] Also form F has been found suitable for large scale drying.
FIG. 8: XRPD's of Form F stored in vacuum at 60° for different periods of time. At each time point of a quick XRPD (9 min) and a normal XRPD (1 hour) were recorded
XRPD patterns were collected with a PANalytical X'pert Empyrean diffractometer using an incident Cu Kα radiation and operating at 45 kV and 40 mA. The XRPD patterns were collected in the 2 theta range from 3 to 60 degrees with a step size of 0.013°, counting time of 198.645s and in transmission geometry. 25 repetitions were done and summarized. In the incident beam path, an parabolic shaped beam Cu W/Si (hybrid MPD) monochromator together with a 10 mm fixed mask, fixed anti-scatter slit ⅛° and fixed divergence slits of 1/16° were placed to line focus the Cu Kα X-rays through the sample and onto the detector. […]

Chain of histamine 4 receptor (Q9H3N8 whole entry): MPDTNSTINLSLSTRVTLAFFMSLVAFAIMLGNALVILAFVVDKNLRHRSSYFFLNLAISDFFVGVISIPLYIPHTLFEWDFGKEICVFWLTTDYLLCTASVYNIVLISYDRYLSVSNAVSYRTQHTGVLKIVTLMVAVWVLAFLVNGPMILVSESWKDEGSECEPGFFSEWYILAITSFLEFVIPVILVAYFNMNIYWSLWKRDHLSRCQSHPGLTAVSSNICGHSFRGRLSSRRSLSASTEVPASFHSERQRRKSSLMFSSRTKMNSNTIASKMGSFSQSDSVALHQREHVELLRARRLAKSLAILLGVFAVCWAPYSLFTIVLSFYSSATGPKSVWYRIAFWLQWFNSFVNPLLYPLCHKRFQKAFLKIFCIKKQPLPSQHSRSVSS

As to `CNC1CN(c2nc3ncc(Br)cc3n3cnnc23)C1` [1-(8-bromopyrido[2,3-e][1,2,4]triazolo[4,3-a]pyrazin-4-yl)-N-methylazetidin-3-amine], at histamine 4 receptor, the “histamine 4 receptor inhibitory effect” value is given as “strong”. For the same compound, the “effect against histamine induced infiltration of inflammatory cells such as mast cells and eosinophils” value in series [1] is recorded as “suppressive effects”.
Consider “1-(8-bromopyrido[2,3-e][1,2,4]triazolo[4,3-a]pyrazin-4-yl)-N-methylazetidin-3-amine hemisuccinate monohydrate [form F]”, for which the “stability of crystalline form on micronization” value in series [2] was “tolerates micronization without undergoing amorphization”. Moreover, the “crystal lattice stability on drying” value in series [3] was “without collapsing the crystal lattice”.
